Experimental data from paper PMC7241536, “Design, synthesis and in vitro antiproliferative activity of new thiazolidinedione-1,3,4-oxadiazole hybrids as thymidylate synthase inhibitors” (Journal of Enzyme Inhibition and Medicinal Chemistry, 2020).
Like-named read-outs stand apart in the source and are kept apart here.

Legend:
[1] = tested on: HCT-116 (colorectal cancer); assay: MTT cytotoxicity assay, HCT-116; assay type: cell-based, human; settings: for IC50: MTT, 72 h, colorectal cancer cell line HCT-116, read-out: IC50 against HCT-116; for folds cytotoxicity compared to 5-FU against HCT-116: relative to 5-fluorouracil
Experimental: (§1) The methods are provided in Supplementary material.
(§2) The newly synthesised compounds 7–21 were tested for their cytotoxicity against human cancer cell line viz. breast and colorectal using MTT assay.
(§3) Two human cancer cell lines, MCF-7 and HCT-116 were cultured in Dulbecco’s Modified Eagles Medium (DMEM) high glucose medium which was supplemented with 10% fetal bovine serum (FBS), 10,000 units/mL penicillin/streptomycin (Pen/Strep) and 1% glutamine). The above cell lines were cultured in 75 cm2 flasks and maintained at 37 °C in an incubator humidified with 5% CO2. The cell culture was performed using aseptic techniques in a Class II […]
(§4) Breast MCF-7 and colorectal HCT-116 cancer cells were added at (1 × 10^5 cells/mL) into a 96 well plate with three replicates and incubated overnight for attachment at 37°C, in 5% CO2 humidified atmosphere. Drug concentrations at 6 serial dilutions (100, 50, 10, 1, 0.5 and 0.1 μM) were added in triplicates and incubated at 37°C, 5% CO2 for 72 h. Drugs were dissolved in 0.1 % DMSO as a vehicle. Untreated cells were used as control. 5-fluorouracil (5-FU) was used as a positive control. Thereafter, each well for each time point was removed and replaced with […] of full medium containing 10% of 3-(4,5- dimethylthiaxolyl-2)-2,5-diphenyltetrazoliumbromide (MTT) (10 mg/mL). Media was removed and 100µl of DMSO was added and cells were incubated for further 5 mins at 37 °C and 5% CO2. Plates were quantified using the SpectraMax M3 plate reader at 570 nm. The percentage inhibition was calculated as 100–[(Mean OD of treated cell × 100)/Mean OD of vehicle treated cells (DMSO)]. All the experiments were repeated at least three independent experiments. […]

MCF-7 (breast cancer) = assay: MTT cytotoxicity assay, MCF-7; assay type: cell-based, human; settings: for IC50: MTT, 72 h, breast cancer cell line MCF-7, read-out: IC50 against MCF-7; for folds activity of 5-FU against MCF-7: relative to 5-fluorouracil
Experimental: as §1, §2, §3, §4

[2] = target: thymidylate synthase (TS) (Homo sapiens, UniProt P04818); assay: In vitro thymidylate synthase assay (spectrophotometric, 340 nm); assay type: biochemical
Experimental: TS activity was performed according to the method as described by Wahab and Friedkin[27] with a slight modification according to Santi.[28] (Refer to Supplementary material for the method.) […]
In vitro Thymidylate synthase assay
It involves a mixture containing 2-mercaptoethanol (0.1 M), (6R,S)-tetrahydrofolate (0.0003 M), formaldehyde (0.012 M), MgCl2 (0.02 M), dUMP (0.001 M), TrisHCl (0.04 M), and NaEDTA […]
(0.00075 M). This assay was done spectrophotometrically at 30° C and pH 7.4. The reaction was initiated by the addition of an amount of enzyme giving a change in absorbance at 340 nm of 0.016/min in the absence of inhibitor. The percent inhibition was determined at a minimum of four inhibitor concentrations within 20% of the 50% point. The standard deviations for […]

[3] = 30 °C, pH 7.4, read-out: TS inhibition IC50

Sequence of thymidylate synthase (TS) (P04818 whole entry): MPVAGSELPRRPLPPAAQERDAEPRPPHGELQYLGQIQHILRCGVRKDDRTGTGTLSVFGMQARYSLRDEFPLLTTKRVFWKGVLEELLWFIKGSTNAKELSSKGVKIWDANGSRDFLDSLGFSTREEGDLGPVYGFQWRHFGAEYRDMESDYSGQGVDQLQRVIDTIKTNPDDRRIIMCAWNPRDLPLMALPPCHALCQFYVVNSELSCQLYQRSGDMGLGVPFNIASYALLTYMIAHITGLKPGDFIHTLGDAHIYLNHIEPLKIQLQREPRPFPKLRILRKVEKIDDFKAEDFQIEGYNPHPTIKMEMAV

| Structure (SMILES) | IC50 ([1]; Homo sapiens, HCT-116, 72 h) | IC50 (MCF-7 (breast cancer); Homo sapiens, MCF7, 72 h) | melting point | further results |
| --- | --- | --- | --- | --- |
| COc1ccc(/C=C2\SC(=O)N(Cc3nnc(-c4cccc(Cl)c4)o3)C2=O)cc1 [Compound 8, (Z)-5-(4-methoxybenzylidene)-3-((5-(3-chlorophenyl)-1,3,4-oxadiazol-2-yl)methyl)thiazolidine-2,4-dione] | 56.8 µM | 56 µM |  |  |
| COc1ccc(/C=C2\SC(=O)N(Cc3nnc(-c4ccccc4Cl)o3)C2=O)cc1 [Compound 9, (Z)-5-(4-methoxybenzylidene)-3-((5-(2-chlorophenyl)-1,3,4-oxadiazol-2-yl)methyl)thiazolidine-2,4-dione] | 12.8 µM | 7.47 µM | 276 to 277 °C | IC50 [2, 3]: 1.67 µM; folds cytotoxicity compared to 5-FU against HCT-116 [1]: 3.1 folds; IC50 (MCF-7 (breast cancer)): 7.74 µM; folds activity of 5-FU against MCF-7 (MCF-7 (breast cancer)): 4.5 folds |
| COc1ccc(/C=C2\SC(=O)N(Cc3nnc(-c4cccc([N+](=O)[O-])c4)o3)C2=O)cc1 [Compound 14, (Z)-5-(4-methoxybenzylidene)-3-((5-(3-nitrophenyl)-1,3,4-oxadiazol-2-yl)methyl)thiazolidine-2,4-dione] | 42.2 µM | 43.4 µM |  | IC50 [2, 3]: 9.4 µM; IC50 [1]: 42.2 µM |
| COc1ccc(/C=C2\SC(=O)N(Cc3nnc(COc4ccc5ccccc5c4)o3)C2=O)cc1 [Compound 20, (Z)-5-(4-methoxybenzylidene)-3-((5-((naphthalen-3-yloxy)methyl)-1,3,4-oxadiazol-2-yl)methyl) thiazolidine-2,4-dione] | > 100 µM | > 100 µM | 210 to 211 °C |  |
| COc1ccc(/C=C2\SC(=O)N(Cc3nnc(-c4ccc(C)cc4)o3)C2=O)cc1 [Compound 11, (Z)-5-(4-methoxybenzylidene)-3-((5-p-tolyl-1,3,4-oxadiazol-2-yl)methyl)thiazolidine-2,4-dione] | 68.1 µM | 58.4 µM | 197 to 198 °C |  |
| COc1ccc(/C=C2\SC(=O)N(Cc3nnc(-c4ccccc4)o3)C2=O)cc1 [Compound 7, (Z)-5-(4-methoxybenzylidene)-3-((5-phenyl-1,3,4-oxadiazol-2-yl)methyl)thiazolidine-2,4-dione] | 57.3 µM | 53.5 µM |  |  |
| COc1ccc(/C=C2\SC(=O)N(Cc3nnc(-c4cccc(C)c4)o3)C2=O)cc1 [Compound 15, (Z)-5-(4-methoxybenzylidene)-3-((5-m-tolyl-1,3,4-oxadiazol-2-yl)methyl)thiazolidine-2,4-dione] | 39.6 µM | 47.8 µM |  | IC50 [2, 3]: 7.9 µM |
| COc1ccc(/C=C2\SC(=O)N(Cc3nnc(-c4ccccc4O)o3)C2=O)cc1 [Compound 12, (Z)-5-(4-methoxybenzylidene)-3-((5-(2-hydroxyphenyl)-1,3,4-oxadiazol-2-yl)methyl)thiazol idine-2,4-dione] | 58.6 µM | 56.3 µM |  |  |
| COc1ccc(/C=C2\SC(=O)N(Cc3nnc(-c4ccccc4C)o3)C2=O)cc1 [Compound 13, (Z)-5-(4-methoxybenzylidene)-3-((5-o-tolyl-1,3,4-oxadiazol-2-yl)methyl)thiazolidine-2,4-dione] | 58.6 µM | 56.3 µM |  |  |
| Nc1nc2[nH]cc(CCc3ccc(C(=O)N[C@@H](CCC(=O)O)C(=O)O)cc3)c2c(=O)[nH]1 [PTX, Pemetrexed, reference compound] |  |  |  | IC50 [2]: 8.2 µM |
| COc1ccc(/C=C2\SC(=O)N(Cc3nnc(COc4cccc5cccnc45)o3)C2=O)cc1 [Compound 21, (Z)-5-(4-methoxybenzylidene)-3-((5-((quinolin-8-yloxy)methyl)-1,3,4-oxadiazol-2-yl)methyl) thiazolidine-2,4-dione] | 63.1 µM | 62 µM | 161 to 162 °C |  |
| O=c1[nH]cc(F)c(=O)[nH]1 [Compound 5-FU, 5-fluorouracil, reference compound] | 40.5 µM | 34.8 µM |  |  |
| COc1ccc(/C=C2\SC(=O)N(Cc3nnc(COc4cccc(Cl)c4)o3)C2=O)cc1 [Compound 17, (Z)-3-((5-((3-chlorophenoxy)methyl)-1,3,4-oxadiazol-2-yl)methyl)-5-(4-methoxybenzylidene)thiazolidine-2,4-dione] | 55.5 µM | 65.2 µM | 142 to 143 °C |  |
| COc1ccc(/C=C2\SC(=O)N(Cc3nnc(-c4ccc(Br)cc4)o3)C2=O)cc1 [Compound 10, (Z)-5-(4-methoxybenzylidene)-3-((5-(4-bromophenyl)-1,3,4-oxadiazol-2-yl)methyl)thiazolidine-2,4-dione] | 16.1 µM | 7.87 µM |  | IC50 [2, 3]: 2.21 µM; folds cytotoxicity compared to 5-FU against HCT-116 [1]: 2.5 folds; folds activity of 5-FU against MCF-7 (MCF-7 (breast cancer)): 4.4 folds |
| COc1ccc(/C=C2\SC(=O)N(Cc3nnc(COc4cccc(Cl)c4Cl)o3)C2=O)cc1 [Compound 18, (Z)-3-((5-((2,3-dichlorophenoxy)methyl)-1,3,4-oxadiazol-2-yl)methyl)-5-(4-methoxybenzylidene)thiazolidine-2,4-dione] | > 100 µM | > 100 µM | 209 to 210 °C |  |
| COc1ccc(/C=C2\SC(=O)N(Cc3nnc(COc4ccccc4)o3)C2=O)cc1 [Compound 16, (Z)-5-(4-methoxybenzylidene)-3-((5-(phenoxymethyl)-1,3,4-oxadiazol-2-yl)methyl)thiazolidine-2,4-dione] | 67.1 µM | 58.4 µM | 152 to 153 °C |  |
| COc1ccc(/C=C2\SC(=O)N(Cc3nnc(COc4cccc5ccccc45)o3)C2=O)cc1 [Compound 19, (Z)-5-(4-methoxybenzylidene)-3-((5-((naphthalen-1-yloxy)methyl)-1,3,4-oxadiazol-2-yl)methyl) thiazolidine-2,4-dione] | 69.5 µM | 61.6 µM | 220 to 221 °C |  |
